Assay results taken from patent US10364256B2 (GlaxoSmithKline Intellectual Property Development Limited, priority 2015, dated 2019).

How the values were obtained:
[1] = biological target: T1, full length Keap1 protein / full length NRF2 protein (Homo sapiens, UniProt Q14145); assay: NRF2-Keap1 TR-FRET Low Protein Assay; assay type: binding; conditions: 1.25 nM Keap1 FlagHis and 2.5 nM biotin-NRF2 added
T1 construct: full length NRF2 protein and full length Keap1 protein (Keap1 exists a dimer) are used; His
In short: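 Flag-tagged full-length Keap1 was preincubated with compound (3-fold series) for 2.25 h at 37 °C in Tris pH 8.0/MgCl2/NaCl/BSA/DTT/CHAPS. Biotin-Avi-NRF2 (added at 2.5 nM) was then bound for 1.25 h at 4 °C. Eu-streptavidin/anti-Flag-APC TR-FRET (665/615 nm) was read after 1 h at RT, and pIC50 came from a four-parameter fit.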

[2] = biological target: T1, full length Keap1 protein / full length NRF2 protein; assay: NRF2-Keap1 TR-FRET Assay; assay type: binding; conditions: 25 nM Keap1-FlagHis and 50 nM biotin-NRF2 added
In short: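 Displacement of biotinylated full-length NRF2 from full-length Keap1 read by Eu/APC TR-FRET (665/615 nm) after 1 h detection at RT. Compound, 3-fold series, first incubated with Keap1 at 37 °C for 2.25 h, NRF2 then added at 4 °C for 1.25 h; pIC50 by four-parameter equation.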

T1 sequence (Q14145 whole entry): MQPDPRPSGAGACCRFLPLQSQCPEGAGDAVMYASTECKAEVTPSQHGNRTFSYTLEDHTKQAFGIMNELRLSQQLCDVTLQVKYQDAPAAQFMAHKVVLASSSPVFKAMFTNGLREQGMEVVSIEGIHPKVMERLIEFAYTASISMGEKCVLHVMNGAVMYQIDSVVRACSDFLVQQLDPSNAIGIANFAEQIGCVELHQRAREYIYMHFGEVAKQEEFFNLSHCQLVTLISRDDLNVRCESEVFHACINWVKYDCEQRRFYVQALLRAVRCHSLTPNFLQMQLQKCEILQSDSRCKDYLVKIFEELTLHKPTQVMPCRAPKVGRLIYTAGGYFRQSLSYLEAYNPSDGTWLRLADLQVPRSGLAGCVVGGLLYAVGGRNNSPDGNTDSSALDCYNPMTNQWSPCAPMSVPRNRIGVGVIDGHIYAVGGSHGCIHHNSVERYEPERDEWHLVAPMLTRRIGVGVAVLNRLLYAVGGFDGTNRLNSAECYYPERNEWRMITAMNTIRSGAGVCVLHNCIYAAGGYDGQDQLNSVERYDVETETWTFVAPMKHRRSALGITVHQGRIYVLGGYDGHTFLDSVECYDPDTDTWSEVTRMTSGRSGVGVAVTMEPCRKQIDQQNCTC

| IC50 [1] | IC50 [2] | Molecule |
| --- | --- | --- |
| < 10 nM | 10 to 100 nM | Cn1cc([C@H]2C[C@@H]2c2c(C(=O)O)cnn2-c2cccc(-c3cccc(C(=O)N4CCCCC4)c3F)c2)nn1 (racemic) [Example 258, 1-(2′-Fluoro-3′-(piperidine-1-carbonyl)-[1,1′-biphenyl]-3-yl)-5-(trans-2-(1-methyl-1H-1,2,3-triazol-4-yl)cyclopropyl)-1H-pyrazole-4-carboxylic Acid] |
| < 10 nM | 10 to 100 nM | Cn1cc([C@H]2C[C@@H]2c2c(C(=O)O)cnn2-c2cccc(-c3cccc(C(=O)N4CCCCCC4)c3F)c2)nn1 (racemic) [Example 260, 1-(2′-Fluoro-3′-(azepane-1-carbonyl)-[1,1′-biphenyl]-3-yl)-5-(trans-2-(1-methyl-1H-1,2,3-triazol-4-yl)cyclopropyl)-1H-pyrazole-4-carboxylic Acid] |
| < 10 nM | 10 to 100 nM | COCC1CCCCN1C(=O)c1cccc(-c2cccc(-n3ncc(C(=O)O)c3C3C[C@H]3c3cn(C)nn3)c2)c1F (mixture of isomers) [Example 264, 1-(3′-(2-(Methoxymethyl)piperidine-1-carbonyl)-2′-fluoro-[1,1′-biphenyl]-3-yl)-5-(trans-2-(1-methyl-1H-1,2,3-triazol-4-yl)cyclopropyl)-1H-pyrazole-4-carboxylic Acid] |
| < 10 nM | 10 to 100 nM | CC(C)CN(C)C(=O)c1cccc(-c2cccc(-n3ncc(C(=O)O)c3[C@@H]3C[C@H]3c3cn(C)nn3)c2)c1F (racemic) [Example 266, 1-(2′-Fluoro-3′(isobutyl(methyl)carbamoyl)-[1,1′-biphenyl]-3-yl)-5-(trans-2-(1-methyl-1H-1,2,3-triazol-4-yl)cyclopropyl)-1H-pyrazole-4-carboxylic Acid] |
| < 10 nM | 10 to 100 nM | C[C@@H]1CCC[C@H](C)N1C(=O)c1cccc(-c2cccc(-n3ncc(C(=O)O)c3[C@@H]3C[C@H]3c3cn(C)nn3)c2)c1F (single isomer, unassigned) [Example 262] |
| 10 to 100 nM | 1000 to 10000 nM | CCCC1CCCCN1C(=O)c1cccc(-c2cccc(-n3ncc(C(=O)O)c3C3CC3)c2)c1F (stereo in doubt) [Example 54d, 5-Cyclopropyl-1-{3-[2-fluoro-3-((2R)-2-propylpiperidine-1-carbonyl)phenyl]phenyl}-1H-pyrazole-4-carboxylic Acid] |
| 10 to 100 nM | 100 to 1000 nM | CC(C)CC1CCCCN1C(=O)c1cccc(-c2cccc(-n3ncc(C(=O)O)c3C3CC3)c2)c1F (centres unmarked) [Example 28, 5-Cyclopropyl-1-(3-{2-fluoro-3-[2-(2-methylpropyl)piperidine-1-carbonyl]phenyl}phenyl)-1H-pyrazole-4-carboxylic Acid] |

The remaining lines, values behind:

| Molecule | IC50 [1] | IC50 [2] |
| --- | --- | --- |
| 1-(3′-((2-chlorocyclohexyl)methoxy)-[1,1′-biphenyl]-3-yl)-5-((1,2-trans)-2-(1-methyl-1H-1,2,3-triazol-4-yl)cyclopropyl)-1H-pyrazole-4-carboxylic acid [Example 186] | 10 to 100 nM | 100 to 1000 nM |
| Cn1cc([C@@H]2C[C@H]2c2c(C(=O)O)cnn2-c2cccc(-c3cccc(-n4ncc5c4C(C)(C)CC5)c3)n2)nn1 (racemic) [Example 251, 1-(6-(3-(6,6-Dimethyl-5,6-dihydrocyclopenta[c]pyrazol-1(4H)-yl)phenyl)pyridin-2-yl)-5-(trans-2-(1-methyl-1H-1,2,3-triazol-4-yl)cyclopropyl)-1H-pyrazole-4-carboxylic Acid] | < 10 nM | 10 to 100 nM |
| Cn1cc([C@@H]2C[C@H]2c2c(C(=O)O)cnn2-c2cccc(-c3cccc(CN4Cc5ccccc5OC(C)(C)C4)c3)c2)nn1 (racemic) [Example 254, 1-(3′-((2,2-Dimethyl-2,3-dihydrobenzo[f][1,4]oxazepin-4(5H)-yl)methyl)-[1,1′-biphenyl]-3-yl)-5-(trans-2-(1-methyl-1H-1,2,3-triazol-4-yl)cyclopropyl)-1H-pyrazole-4-carboxylic Acid] | 10 to 100 nM | 100 to 1000 nM |
| Cn1cc([C@H]2C[C@@H]2c2c(C(=O)O)cnn2-c2cccc(-c3cccc(C(=O)N4CCCC(C)(C)C4)c3F)c2)nn1 (racemic) [Example 259, 1-(2′-Fluoro-3′-(3,3-dimethylpiperidine-1-carbonyl)-[1,1′-biphenyl]-3-yl)-5-(trans-2-(1-methyl-1H-1,2,3-triazol-4-yl)cyclopropyl)-1H-pyrazole-4-carboxylic Acid] | < 10 nM | 10 to 100 nM |
| CC1CC(C)CN(C(=O)c2cccc(-c3cccc(-n4ncc(C(=O)O)c4[C@@H]4C[C@H]4c4cn(C)nn4)c3)c2F)C1 (mixture of isomers) [Example 263, 1-(3′-(3,5-Dimethylpiperidine-1-carbonyl)-2′-fluoro-[1,1′-biphenyl]-3-yl)-5-(2-(1-methyl-1H-1,2,3-triazol-4-yl)cyclopropyl)-1H-pyrazole-4-carboxylic Acid] | < 10 nM | 10 to 100 nM |
| CC(Oc1cccc(-c2cccc(-n3ncc(C(=O)O)c3[C@@H]3C[C@H]3c3cn(C)nn3)n2)c1)C1CCCCC1 (relative stereo) [Example 249, 1-(6-(3-(1-Cyclohexylethoxy)phenyl)pyridin-2-yl)-5-(trans-2-(1-methyl-1H-1,2,3-triazol-4-yl)cyclopropyl)-1H-pyrazole-4-carboxylic Acid] | < 10 nM | 10 to 100 nM |
| CCC1Cc2ccccc2CN(Cc2cccc(-c3cccc(-n4ncc(C(=O)O)c4[C@@H]4C[C@H]4c4cn(C)nn4)c3)c2)C1 (relative stereo) [Example 252, 1-(3′-((4-Ethyl-4,5-dihydro-1H-benzo[c]azepin-2(3H)-yl)methyl)-[1,1′-biphenyl]-3-yl)-5-(trans-2-(1-methyl-1H-1,2,3-triazol-4-yl)cyclopropyl)-1H-pyrazole-4-carboxylic Acid] | 10 to 100 nM | 100 to 1000 nM |
| C[C@@H]1CCC[C@H](C)N1C(=O)c1cccc(-c2cccc(-n3ncc(C(=O)O)c3[C@H]3C[C@@H]3c3cn(C)nn3)c2)c1F (single isomer, unassigned) [Example 261] | < 10 nM | 10 to 100 nM |
| O=C(O)c1cnn(-c2cccc(-c3cccc(C(=O)N(CC4CC4)CC4CC4)c3F)c2)c1C1CC1 [Example 8, 1-(3-{3-[Bis(cyclopropylmethyl)carbamoyl]-2-fluorophenyl}phenyl)-5-cyclopropyl-1H-pyrazole-4-carboxylic Acid] | 10 to 100 nM | 100 to 1000 nM |
| CC1CCCN(C(=O)c2cccc(-c3cccc(-n4ncc(C(=O)O)c4C4CC4)c3)c2F)CC1 (centres unmarked) [Example 29, 5-Cyclopropyl-1-{3-[2-fluoro-3-(4-methylazepane-1-carbonyl)phenyl]phenyl}-1H-pyrazole-4-carboxylic Acid] | 10 to 100 nM | 100 to 1000 nM |
| CC1CCC(C)N(C(=O)c2cccc(-c3cccc(-n4ncc(C(=O)O)c4C4CC4)c3)c2F)C1 (centres unmarked) [Example 30, 5-Cyclopropyl-1-{3-[3-(2,5-dimethylpiperidine-1-carbonyl)-2-fluorophenyl]phenyl}-1H-pyrazole-4-carboxylic Acid] | 100 to 1000 nM | 1000 to 10000 nM |
| O=C(O)c1cnn(-c2cccc(-c3cccc(C(=O)N4CCCC5CCCCC54)c3F)c2)c1C1CC1 (centres unmarked) [Example 31, 5-Cyclopropyl-1-{3-[3-(decahydroquinoline-1-carbonyl)-2-fluorophenyl]phenyl}-1H-pyrazole-4-carboxylic Acid] | 10 to 100 nM | 1000 to 10000 nM |
